Measured values published in patent publication US20240082279A1, “COMPOSITIONS AND METHODS FOR PREVENTING AND/OR TREATING SCARS” (L'Oreal, priority 2022, published 2024).

Assays:
Format in all cases: cell-based, human
[1] = test system: laser wounded reconstructed skin (SoftSkin™); assay: H&E histology of laser wounded reconstructed skin (SoftSkin™); conditions: SoftSkin™ model after CO2 laser; 10 uL working solution topically every 24 hours, Day 0 to Day 2; sections Day 0, 2, 4; FIG. 2
Experimental: (§1) Surgical skin samples were be taken from adults and subjected to the 0.25% trypsin dermis/epidermis separation method described in Rheinwald to obtain suspensions of normal human keratinocytes (NHK) and dermal fibroblasts. See Rheinwald J. G., Green H.: Serial cultivation of strains of human epidermal keratinocytes: The formation of keratinizing colonies from single cells. Cell. 6(3):331-43. 1975. The separated normal human dermal fibroblasts were cultured in DMEM+10% fetal calf serum. The fibroblasts were cast onto a lower layer of proto-SoftSkin™ gel. A full-thickness dermal layer equivalent was obtained after contraction of a mixture of Collagen Type I and human normal fibroblasts. The separated normal human keratinocyte cell cultures were initiated using the 3T3 feeder-layer technique described in Rheinwald J. G., Green H.: Epidermal growth factor and the multiplication of cultured human epidermal keratinocytes. Nature 265:421-424 (1977). The separated normal human keratinocytes were seeded on a lattice on the top layer of a proto-SoftSkin™ gel and the culture was left for 7 days in submerged conditions at 37° C. in the presence of 5% carbon dioxide in MEM containing 10% fetal calf serum, allowing the cells to proliferate and form an epidermal layer. Then, the culture was raised upwards to air-liquid interface for an additional 7 days to grow reconstructed skin models (SoftSkin™). […]

α-SMA = α-SMA ELISA of lysed reconstructed skin tissue; conditions: 3% in 3% propylene glycol, Day 2 SoftSkin™ after CO2 laser, vs laser treated tissues not further treated, FIG. 8
Experimental: Surgical skin samples were be taken from adults and subjected to the 0.25% trypsin dermis/epidermis separation method described in Rheinwald to obtain suspensions of normal human keratinocytes (NHK) and dermal fibroblasts. See Rheinwald J. G., Green H.: Serial cultivation of strains of human epidermal keratinocytes: The formation of keratinizing colonies from single cells. Cell. 6(3):331-43. 1975. The separated normal human dermal fibroblasts were cultured in DMEM+10% fetal calf serum. The fibroblasts were cast onto a lower layer of proto-SoftSkin™ gel. A full-thickness dermal layer equivalent was obtained after contraction of a mixture of Collagen Type I and human normal fibroblasts. […]
Punched Day 2 normal human tissue cultures tissues were submerged with Tissue Lysis Buffer (R&D Systems) and cryogenically ground 3 times, and further lysed on ice for 30 minutes. […] Aliquots of the supernatant were removed and stored at −80° C. until assayed. α-SMA concentration in ECM was determined using a BCA protein array kit (Absin, abs9232-500) and normalized before ELISA assay (alpha SMA Human ELISA Kit #Abcam, ab240678). […]
Each experiment in Examples 2-5 was replicated three times. For immunostaining study, one cryosection per replicate and 4 fluorescence images/section were taken for data analysis. […]

Filaggrin = Filaggrin immunofluorescence staining in laser wounded reconstructed skin; conditions: 3% in 3% propylene glycol, Day 2 SoftSkin™ after CO2 laser, vs laser alone, laser+vehicle and untreated control, FIG. 4
Experimental: as §1

Ki67 = Ki67 immunofluorescence staining in laser wounded reconstructed skin; conditions: 3% in 3% propylene glycol, Day 2 SoftSkin™ after CO2 laser, vs laser alone, laser+vehicle and untreated control, FIG. 6
Experimental: as §1

DKK-1 = DKK-1 secretion, Luminex Assay of medium supernatant from reconstructed skin; conditions: 3% in 3% propylene glycol, day 1 SoftSkin™ after CO2 laser, vs laser alone, laser+vehicle, untreated control
Experimental: Surgical skin samples were be taken from adults and subjected to the 0.25% trypsin dermis/epidermis separation method described in Rheinwald to obtain suspensions of normal human keratinocytes (NHK) and dermal fibroblasts. See Rheinwald J. G., Green H.: Serial cultivation of strains of human epidermal keratinocytes: The formation of keratinizing colonies from single cells. Cell. 6(3):331-43. 1975. The separated normal human dermal fibroblasts were cultured in DMEM+10% fetal calf serum. The fibroblasts were cast onto a lower layer of proto-SoftSkin™ gel. A full-thickness dermal layer equivalent was obtained after contraction of a mixture of Collagen Type I and human normal fibroblasts. The separated normal human keratinocyte cell cultures were initiated using the 3T3 feeder-layer technique described in Rheinwald J. G., Green H.: Epidermal growth factor and the multiplication of cultured human epidermal keratinocytes. Nature 265:421-424 (1977). The separated normal human keratinocytes were seeded on a lattice on the top layer of a proto-SoftSkin™ gel and the culture was left for 7 days in submerged conditions at 37° C. in the presence of 5% carbon dioxide in MEM containing 10% fetal calf serum, allowing the cells to proliferate and form an epidermal layer. Then, the culture was raised upwards to air-liquid interface for an additional 7 days to grow reconstructed skin models (SoftSkin™).
The reconstructed skin samples derived from normal human dermal fibroblasts and normal human keratinocytes were subjected to CO2 laser treatment. […]
Medium supernatant was collected from the reconstructed skin samples. DKK-1 secretions were measured using a Luminex Assay (R&D Systems) in a panel following the manufacturer's guidelines. […]
Each experiment in Examples 2-5 was replicated three times. For immunostaining study, one cryosection per replicate and 4 fluorescence images/section were taken for data analysis. All the data were statistically analyzed by Graph Pad Prism and presented as mean±standard deviation unless otherwise specified. […]

Compound	Keratinocyte invasion of laser dermal injury sites (H&E stained cross-sections) [1]	α-SMA expression (α-SMA)	α-SMA expression (α-SMA; listed as C-glycoside)	Filaggrin expression (relative fluorescence intensity, Image J) (Filaggrin)	Filaggrin expression (relative fluorescence intensity, Image J) (Filaggrin; listed as C-glycoside)	Ki67 expression (ratio of Ki67 positive cells/total cell number in basal layer) (Ki67)	Ki67 expression (ratio of Ki67 positive cells/total cell number in basal layer) (Ki67; listed as C-glycoside)	DKK-1 secretion/expression (DKK-1; FIG. 7)	DKK-1 secretion/expression (DKK-1; FIG. 7, listed as C-glycoside)	DKK-1 secretion/expression (DKK-1; FIG. 7, listed as Proxylane)
CC(O)C[C@@H]1OC[C@@H](O)[C@H](O)[C@H]1O (stereo partly drawn) [Hydroxypropyl tetrahydropyrantriol, C13-D-xylopyranoside2-hydroxypropane]	Keratinocytes invaded laser dermal injury sites	reduced α-SMA expression in a statistically significant manner	reduced the level of α-smooth muscle actin in laser wounded skin in a statistically significant manner	increased Filaggrin expression	significantly higher level	increased Ki67 expression	significantly higher level	enhanced expression of DKR-1	restored DKK-1 secretion to a level similar to control	enhancing the expression of DKK-1
hyaluronic acid [reference compound]	not									
